A short description of assay [1]: concentration-response yeast growth inhibition under permissive conditions, counter-assay for yeast lifespan-shortening chemical project (AID 850).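 Note: growth read as optical density after one day of incubation.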 The conditions noted are these: Saccharomyces cerevisiae growth inhibition, permissive control, measured here: maximum growth inhibition, stronger effect = higher value.
The test system of assay [2] is Saccharomyces cerevisiae growth inhibition, permissive control. The description is as above.

Active and inactive are the calls of the source. The rule behind the calls is not given here.

Consider `c1ccc(Cc2nnc3sc(-c4ccc5c(c4)OCCO5)nn23)cc1`, for which the inhibition in assay [1] (at 1.563 µM) came to 14.5%. The IC50 in assay [2] is > 100 µM (inactive).
As to `Nc1[nH]c(=O)ncc1F`, the inhibition in assay [1] (at 50 µM) was 84.8%. Moreover, in assay [2], the IC50 was 17.5 µM.
Turning to `Cc1c(Cl)cccc1N=Cc1ccc([N+](=O)[O-])s1`, in assay [1] (at 50 µM), the inhibition came to 9.36%. The IC50 in assay [2] was > 100 µM (inactive).
For `CCOC(=O)C(=NCCCN(C)C)NNc1ccc(Br)cc1`, in that order: 97.4% and 5.8 µM.
In the case of `Cc1ccc(C(=O)Oc2ccc(Cl)c3cccnc23)cc1[N+](=O)[O-]`, the inhibition in assay [1] (at 50 µM) is 73.3%. Moreover, the IC50 in assay [2] is 40.6 µM.
For the compound `CCc1ccc(S(=O)(=O)NCCc2cn3ccsc3n2)s1`, in assay [1] (at 25 µM), the inhibition was 10.4%. Besides, in assay [2], the IC50 is > 100 µM (inactive).
On to `Cn1c(SCC(=O)Nc2ccccc2)nc(O)cc1=O`, for which the inhibition in assay [1] (at 50 µM) came to 76.2%. Also, the IC50 in assay [2] is 33.2 µM.
For `COc1ccc(-c2n[nH]c(C)c2-c2ccc(Cl)cc2)c(O)c1`, in that order: 99% and 33.9 µM.
Turning to `Cc1cc(C)nc(N/N=C/C2=C(N3CCOCC3)C(=C\c3ccc(Cl)cc3)/CC2)n1`, the inhibition in assay [1] (at 3.125 µM) is 5.26%. Moreover, the IC50 in assay [2] is > 100 µM (inactive).
In the case of `CCCCCCCCCCCCCCCC[n+]1cccc(C(=O)N(CC)CC)c1`, the inhibition in assay [1] (at 50 µM) came out at 101%. For the same compound, in assay [2], the IC50 was 1.82 µM.
As for `Cc1ccc2nc(-c3ccc(NS(C)(=O)=O)cc3)cc(-c3ccccc3)c2c1`, the inhibition in assay [1] (at 50 µM) turned out to be 22.2%. Moreover, the IC50 in assay [2] was > 100 µM (inactive).
The corresponding values for `Cc1ccc(-n2cnc3cc(NCc4cccs4)ccc32)cc1` are 53.2% and 45.8 µM.
Regarding `CCOCC(=O)Nc1nc2c(s1)C(=O)CC(C)(C)C2`, the inhibition in assay [1] (at 50 µM) worked out at 1.4%. Moreover, in assay [2], the IC50 was > 100 µM (inactive).
For the compound `O=C1ON=C(c2ccccc2)/C1=C/c1ccc(OS(=O)(=O)c2ccccc2)cc1`, the inhibition in assay [1] (at 50 µM) was 11.6%. In assay [2], the IC50 was > 100 µM (inactive).
As to `O=C(CSCc1ccco1)Nc1cc(C(F)(F)F)ccc1N1CCOCC1`, the inhibition in assay [1] (at 0.781 µM) stood at 16.7%. In addition, the IC50 in assay [2] is > 100 µM (inactive).
As for `CN1C(=O)/C(=N/OC(=O)c2ccccc2)c2ccccc21`, in assay [1] (at 50 µM), the inhibition worked out at 90.8%. Further, the IC50 in assay [2] was 46.3 µM.
Take `C(=N\c1ncnc2sccc12)/NOCc1ccccc1`: the inhibition in assay [1] (at 50 µM) stood at 98.6%. For the same compound, the IC50 in assay [2] is 7.68 µM.
Consider `c1ccc(-c2csc3nnc(SCc4ccc5c(c4)OCO5)n23)cc1`, for which the inhibition in assay [1] (at 0.781 µM) was 9.45%. The IC50 in assay [2] is > 100 µM (inactive).
As for `O=[N+]([O-])c1cc(Cc2ccccc2)cc(C=Nc2ccc(N3CCOCC3)cc2)c1O`, in assay [1] (at 25 µM), the inhibition came out at 82.7%. Further, in assay [2], the IC50 was 15 µM.
Take `COc1cccc2c(=O)c3c(cnn3C)n(C)c12`: the inhibition in assay [1] (at 25 µM) was found to be 21.2%. In assay [2], the IC50 is > 100 µM (inactive).
For the compound `Cc1cc(O)c(/C=N/Nc2cccc(Cl)c2)c(=O)o1`, the inhibition in assay [1] (at 50 µM) was 80.8%. In addition, the IC50 in assay [2] is 26.7 µM.
For the compound `CC(C)(C)c1cc(NCCCn2ccnc2)n2ncc(-c3ccc(Cl)cc3)c2n1`, in assay [1] (at 12.5 µM), the inhibition amounted to 1.41%. Also, the IC50 in assay [2] is > 100 µM (inactive).
For the compound `COc1cc(-c2nc3ccc4ccccc4c3c3c2CCC3)ccc1O`, in assay [1] (at 3.125 µM), the inhibition is 11.9%. Moreover, in assay [2], the IC50 is > 100 µM (inactive).
With `Cc1ccnn2cc3c(=O)n(C)c(=O)n(C)c3c12`, the inhibition in assay [1] (at 50 µM) is 64.1%. Also, the IC50 in assay [2] was 37.6 µM.
`O/N=C/c1cc(Cl)ccc1OCc1cccc2ccccc12`: the inhibition in assay [1] (at 0.391 µM) was found to be 11.2%. Besides, in assay [2], the IC50 was > 100 µM (inactive).
Regarding `O=C(Nc1nc(-c2ccccn2)cs1)c1ncc(Cl)c(Cl)c1Cl`, the inhibition in assay [1] (at 12.5 µM) worked out at 13.1%. In addition, the IC50 in assay [2] is > 100 µM (inactive).
With `O=C(/C=C/c1ccccc1Cl)c1ccccc(=O)c1O`, the inhibition in assay [1] (at 50 µM) was determined as 101%. The IC50 in assay [2] is 11.5 µM.
On to `COc1ccccc1-n1c(=O)oc2ccc(Cl)cc2c1=O`, for which, in assay [1] (at 6.25 µM), the inhibition was -0.76%. The IC50 in assay [2] was > 100 µM (inactive).
As to `O=c1c2ccccc2nc2c3ccccc3c3nncn3n12`, in assay [1] (at 6.25 µM), the inhibition was 5.16%. In addition, in assay [2], the IC50 is > 100 µM (inactive).
Turning to `C=C(C)COc1ccc(-c2[nH]ncc2Oc2cccc(OC)c2)c(O)c1`, the inhibition in assay [1] (at 12.5 µM) worked out at 20.1%. Moreover, in assay [2], the IC50 was > 100 µM (inactive).
Consider `CC(=O)/C(=N\Nc1ccc(C)cc1)N1CCOCC1`, for which the inhibition in assay [1] (at 50 µM) is 96.4%. In addition, the IC50 in assay [2] was 5.2 µM.
`CC(=O)N1c2ccccc2C2(O)N=C(C)SC12` (configuration not stated): the inhibition in assay [1] (at 50 µM) worked out at 16%. Further, in assay [2], the IC50 was > 100 µM (inactive).
The corresponding values for `CCCc1ccc(Oc2c(-c3ccc(O)c(C)c3O)n[nH]c2C)cc1` are 93.6% and 14.8 µM.
The corresponding values for `COc1cc(OC)nc(NC(=O)CS(=O)(=O)c2ccccc2)n1` are 77.3% and 17.4 µM.
For the compound `Cc1ccc(N/N=C(\C#N)C(N)=S)c(C)c1`, the inhibition in assay [1] (at 25 µM) amounted to 4.57%. Moreover, the IC50 in assay [2] is > 100 µM (inactive).
For `O=C(O)CSc1nc(-c2ccc(Cl)cc2)nc2c1oc1ccccc12`, the inhibition in assay [1] (at 50 µM) stood at 86.6%. Moreover, the IC50 in assay [2] is 32.1 µM.
In the case of `COC(=O)CSC1=NS(=O)(=O)c2ccccc21`, in assay [1] (at 12.5 µM), the inhibition is 27.4%. Further, the IC50 in assay [2] is > 100 µM (inactive).
With `COc1cccc(CC(=O)Nc2ccc3nc(C)sc3c2)c1`, the inhibition in assay [1] (at 50 µM) came to 96.5%. In assay [2], the IC50 is 16 µM.
The corresponding values for `Oc1ccc2ccccc2c1N=Nc1ccccn1` are 97.5% and 25 µM.
For `CCC(=O)c1c(O)n(C2CCCCCC2)c(=O)[nH]c1=O`, in that order: 91% and 29 µM.
For `c1ccc(-c2nc3c(ccc4ccccc43)[nH]2)nc1`, in that order: 80.8% and 36.8 µM.
As for `CC(C)(C)C(O)C(Oc1ccc(Cl)cc1)n1cncn1` (configuration not stated), the inhibition in assay [1] (at 12.5 µM) was 95.1%. Besides, in assay [2], the IC50 is 2.15 µM.
For `CC1CCCC2(C1)NC(=S)N(c1ccccc1)N2` (configuration not stated), in assay [1] (at 50 µM), the inhibition was 78.8%. Moreover, the IC50 in assay [2] was 20.5 µM.
With `CCOC(=O)c1c(N)sc(C(O)(C(F)(F)F)C(F)(F)F)c1-c1ccc(Cl)cc1`, the inhibition in assay [1] (at 0.781 µM) worked out at 7.92%. Further, the IC50 in assay [2] is > 100 µM (inactive).
On to `CCOc1cc(N2CCOCC2)c(OCC)cc1NC(=O)COc1cccc2cccnc12`, for which, in assay [1] (at 0.098 µM), the inhibition came to 11.3%. The IC50 in assay [2] was > 100 µM (inactive).
Take `O=[N+]([O-])c1cc(/C=N/O)ccc1Sc1ccccc1`: the inhibition in assay [1] (at 50 µM) was 7.13%. Also, the IC50 in assay [2] is > 100 µM (inactive).
The corresponding values for `Cn1c2ccccc2c2cc(C(=O)O)ccc21` are 23.6% and > 100 µM (inactive).
As to `Cc1ccc(-c2nn3c(C)nnc3s2)cc1NC(=O)c1ccc(OC(C)C)cc1`, the inhibition in assay [1] (at 0.098 µM) stood at 17.3%. In addition, the IC50 in assay [2] was > 100 µM (inactive).
For `O=c1cc(-c2ccccc2)n(S(=O)(=O)c2ccccc2)o1`, the inhibition in assay [1] (at 0.195 µM) stood at 2.71%. The IC50 in assay [2] is > 100 µM (inactive).
For the compound `S=C(NCC1CCCCC1)Nc1ccc(Oc2ccccc2)cc1`, the inhibition in assay [1] (at 0.781 µM) amounted to 7.72%. For the same compound, the IC50 in assay [2] is > 100 µM (inactive).
Consider `O=C(C1=C(O)/C(=C/c2ccc(O)cc2)CCC1)C(F)(F)F`, for which the inhibition in assay [1] (at 0.195 µM) amounted to 7.72%. The IC50 in assay [2] was > 100 µM (inactive).
Regarding `FC(F)Sc1ccc(Nc2ncnc3nc[nH]c23)cc1`, in assay [1] (at 1.563 µM), the inhibition was found to be 11.9%. Further, in assay [2], the IC50 was > 100 µM (inactive).
For `CCCCCCN1N=C(C)C(C(=O)c2ccc(Cl)cc2)C1=O` (configuration not stated), the inhibition in assay [1] (at 50 µM) worked out at 75%. In assay [2], the IC50 is 24.5 µM.
The corresponding values for `C/C(=N\Nc1nc2c(s1)CCCC2)c1ccccc1` are 99.1% and 28.2 µM.
As to `Cc1cc(-c2n[nH]c(=S)n2/N=C/c2cc([N+](=O)[O-])ccc2Cl)n[nH]1`, the inhibition in assay [1] (at 0.781 µM) is -1.78%. Moreover, the IC50 in assay [2] was > 100 µM (inactive).
`CCOC(=O)c1c(NC(=S)Nc2ccc(Cl)cc2)sc2c1CCN(C)C2`: in assay [1] (at 25 µM), the inhibition was 99.8%. In assay [2], the IC50 is 8.2 µM.
On to `N#Cc1ccccc1NC(=O)c1ccc2c(Cl)c3c(nc2c1)CCCC3`, for which the inhibition in assay [1] (at 3.125 µM) was 13.6%. Further, the IC50 in assay [2] was > 100 µM (inactive).
On to `CC(C)CNC(=O)CN(C1CCCCC1)S(C)(=O)=O`, for which the inhibition in assay [1] (at 1.563 µM) turned out to be 9.04%. The IC50 in assay [2] is > 100 µM (inactive).
As for `Brc1ccccc1-c1nnc(CSc2nnc3sc4ccccc4n23)o1`, in assay [1] (at 6.25 µM), the inhibition was found to be 13.3%. Further, the IC50 in assay [2] was > 100 µM (inactive).
Take `O=C(Oc1c(Cl)cc(Cl)c2cccnc12)c1cccc([N+](=O)[O-])c1`: the inhibition in assay [1] (at 12.5 µM) worked out at 99.4%. Further, the IC50 in assay [2] is 1.44 µM.
`O=c1c(-c2ccccc2)nc(-c2ccccc2)cn1O`: in assay [1] (at 50 µM), the inhibition is 82.1%. Besides, the IC50 in assay [2] was 22.9 µM.
The corresponding values for `Cc1cccc(OCCCCc2c(C)n[nH]c2C)c1C` are 76.5% and 32 µM.
Consider `NC(N)=N/N=C/c1ccc(OCc2ccc(Cl)cc2Cl)cc1`, for which the inhibition in assay [1] (at 50 µM) turned out to be 101%. Moreover, in assay [2], the IC50 was 28.1 µM.
For the compound `C/C(O)=c1/ccc2cccc3nc(C)nc1c23`, the inhibition in assay [1] (at 25 µM) came out at 24.2%. Besides, the IC50 in assay [2] is > 100 µM (inactive).
With `CN1CCN(C2=Cc3cc(Cl)ccc3Sc3cc(F)ccc32)CC1`, the inhibition in assay [1] (at 50 µM) amounted to 100%. In assay [2], the IC50 was 20.4 µM.
The corresponding values for `Cc1ccc2c(c1)c1c(n2C)-c2[nH]ncc2CC1` are 71.1% and 38.2 µM.

These data come from PubChem BioAssay AID850 (SRMLSC, 2007).
